Reference: patent US20080306044A1, “SPIROBENZOAZEPANES AS VASOPRESSIN ANTAGONISTS” (priority 2007, published 2008)

How the values were obtained:
human V1a receptor [1] = molecular target: T1, human V1a receptor (Homo sapiens, UniProt P37288); assay: cell-based
T1 construct: expressed in transfected cells
Description: The V1a receptor is a G-protein coupled receptor, which upon activation triggers an increase in intracellular calcium mobilization. To evaluate compounds for their functional V1a receptor activity, HEK-293 cells were transfected with the human V1a receptor (V1a-HEK cells). HEK-293 cells were grown in DMEM (Dulbecco's modified Eagle Media) supplemented with 10% FBS and glutamine. HEK-cells were passed biweekly by trypsinization and seeded into 96 well plates at 33,000 cells per well. HEK-293 cells were transfected with human V1a receptor DNA using DMRIE-C reagent from Life Technologies (Carlsbad, Calif.). Stable lines were generated by selecting cells grown in culture media containing geneticin. After growing in Packard Clear-View black 96 well plates for 4-6 days, V1a-HEK cells were loaded with the calcium-sensitive fluorescence dye, FLUO-3 AM. Changes in intracellular calcium mobilization were measured by quantitating intracellular fluorescence using FLIPR (Fluorometric Imaging Plate Reader; Molecular Devices, Sunnyvale, Calif.). Test compounds were first added to the cells and the resulting changes in fluorescence measured to detect receptor agonistic activity. Five minutes later the cells were challenged with vasopressin to test compounds for their antagonistic activity. Receptor antagonists inhibit the ability of vasopressin to stimulate increases in intracellular fluorescence.

human V1a receptor [2] = molecular target: T1, human V1a receptor; assay: In-vitro binding assay (3H-arginine-8-vasopressin), V1a; conditions: for IC50: membrane containing human V1a receptor, 3H-arginine-8-vasopressin 0.65-0.75 nM; for inhibition at 0.2 µM: test concentration of 0.2 μM, read-out: V1a binding percent inhibition (in parentheses, where an IC50 value was not obtained)
Description: (§1) Assay buffer is 50 mM Tris-Cl, 5 mM MgCl2, 0.1% BSA (pH 7.5) containing 5 μg/mL of aprotinin, leupeptin, pepstatin, 50 μg/mL bacitracin, and 1 mM Pefabloc (4-(2-aminoethyl)-benzenesulfonyl fluoride, hydrochloride manufactured by Roche Diagnostics Corporation, Indianapolis, Ind. and distributed by Boehringer Mannheim). H3 vasopressin is ^3H-arginine-8-vasopressin (NEN Life Sciences, Boston, Mass.; 68.5 Ci/mmol, final concentration in assay is 0.65-0.75 nM). Into the wells of a 96-well round bottom polypropylene plates are added buffer, test compound, membrane (containing human V1a or V2 receptor), and H3 vasopressin. The reaction plates are allowed to sit at room temperature for one hour. The samples are filtered through Unifilter GF/C plates (PerkinElmer Life Sciences, Boston, Mass.) presoaked in 0.3 polyethyleneimine. The plates are washed 5 times with cold physiological saline containing 0.05% Tween 20. After drying, the bottom of the filter plates are sealed and 0.025 mL of Microscint-20 (Packard Instrument Co, Meriden, Conn.) is added to each filter. The top of the plate is sealed, and the plate is counted. Non-specific binding is determined by the addition of 1.25 μM arginine-8-vasopressin in those wells.
(§2) The % inhibition for the test results was calculated according to the formula: […]
Where an IC50 value was not obtained, the percent inhibition values are shown in parentheses (*) and were obtained at a test concentration of 0.2 μM.

human V2 receptor [3] = molecular target: T2, human V2 receptor (Homo sapiens, UniProt P30518); assay: In-vitro binding assay (3H-arginine-8-vasopressin), V2; conditions: for IC50: membrane containing human V2 receptor, 3H-arginine-8-vasopressin 0.65-0.75 nM; for inhibition at 0.2 µM: test concentration of 0.2 μM, read-out: V2 binding percent inhibition (in parentheses, where an IC50 value was not obtained)
T2 sequence (P30518 whole entry): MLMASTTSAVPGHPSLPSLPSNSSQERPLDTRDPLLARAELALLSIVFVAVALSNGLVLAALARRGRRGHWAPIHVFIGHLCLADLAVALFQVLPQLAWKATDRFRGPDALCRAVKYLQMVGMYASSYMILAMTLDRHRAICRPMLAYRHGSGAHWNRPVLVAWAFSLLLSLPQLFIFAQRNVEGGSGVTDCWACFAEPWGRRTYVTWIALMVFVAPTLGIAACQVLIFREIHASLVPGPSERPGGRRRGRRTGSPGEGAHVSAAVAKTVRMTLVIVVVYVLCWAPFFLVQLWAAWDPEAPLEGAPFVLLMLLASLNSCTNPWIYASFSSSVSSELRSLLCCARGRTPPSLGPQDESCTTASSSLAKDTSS
Description: as §1, with “H3 vasopressin is ^3H-arginine-8-vasopressin (NEN Life Sciences, Boston, Mass.; 68.5 Ci/mmol, final concentration in assay is 0.65-0.75 nM).” left out, “counted.” for “counted. Non-specific binding is determined by the addition of 1.25 μM arginine-8-vasopressin in those wells.”
as §2

human V2 receptor [4] = molecular target: T2, human V2 receptor; assay: V2 vasopressin receptor functional activity (cAMP accumulation); assay type: cell-based; design: expressed in transfected cells; host or cells: HEK-293; conditions: V2-HEK cells; block of vasopressin-stimulated cAMP accumulation; read-out: V2 (functional) IC50
Description: The V2 receptor is also a G-protein coupled receptor which when activated induces an increase in cAMP turnover. Antagonism against the V2 receptor is determined by measuring cAMP accumulation in transfected HEK-293 cells expressing the human V-2 receptor (V2-HEK cells). Compounds are tested for their ability to block the stimulatory effects of vasopressin on cAMP accumulation. The cell content of cAMP is measured by radioimmunoassay using NEN flashplates.

[5] = V1 (functional) IC50, V1a-HEK cells, inhibition of vasopressin-stimulated intracellular calcium mobilization

T1 sequence (P37288 whole entry): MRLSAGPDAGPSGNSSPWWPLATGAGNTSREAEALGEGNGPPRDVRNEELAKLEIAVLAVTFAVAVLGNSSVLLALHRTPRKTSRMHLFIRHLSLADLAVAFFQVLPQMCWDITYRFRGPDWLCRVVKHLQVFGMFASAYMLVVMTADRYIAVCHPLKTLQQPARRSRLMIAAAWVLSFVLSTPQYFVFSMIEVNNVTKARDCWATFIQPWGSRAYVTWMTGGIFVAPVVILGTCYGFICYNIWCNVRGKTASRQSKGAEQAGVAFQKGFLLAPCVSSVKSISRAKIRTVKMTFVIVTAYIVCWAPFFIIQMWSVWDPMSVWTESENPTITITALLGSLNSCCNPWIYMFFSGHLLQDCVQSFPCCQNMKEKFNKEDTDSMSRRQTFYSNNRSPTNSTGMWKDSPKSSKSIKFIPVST

Structure (SMILES) | IC50 (human V1a receptor [1]; [5]) | IC50 (human V1a receptor [2]) | IC50 (human V2 receptor [3]) | IC50 (human V2 receptor [4]) | further results
O=C(Nc1ccc(C(=O)N2CCC3(CCCC3=NO)Cc3ccccc32)cc1)c1cc(F)ccc1Cl (centres unmarked) [Cpd 44, N-[4-(2-chloro-5-fluoro-phenylcarbonyl)amino-phenylcarbonyl]-2-hydroxyimino-spiro[cyclopentane-1,4′-benzo[b]azepane]] | 20 nM | 7 nM | 28 nM | 66 nM | 
O=C(Nc1ccc(C(=O)N2CC[C@@]3(CCCC3=NO)Cc3ccccc32)cc1)c1cc(F)ccc1Cl [Cpd 7, (R)—N-[4-(2-chloro-5-fluoro-phenylcarbonyl)amino-phenylcarbonyl]-2-hydroxyimino-spiro[cyclopentane-1,4′-benzo[b]azepane]] | 18 nM | 8 nM | 28 nM | 24 nM | 
O=C(NN=C1CCCC12CCN(C(=O)c1ccc(NC(=O)c3cc(F)ccc3Cl)cc1)c1ccccc1C2)c1cccnc1 (centres unmarked) [Cpd 4, N-[4-(2-chloro-5-fluoro-phenylcarbonyl)amino-phenylcarbonyl]-2-pyridin-3-ylcarbonylaminoimino-spiro[cyclopentane-1,4′-benzo[b]azepane]] | 20 nM | 12 nM | 62 nM | 43 nM | 
O=C(Nc1ccc(C(=O)N2CCC3(CCCC3=NNc3ccccn3)Cc3ccccc32)cc1)c1cc(F)ccc1Cl (centres unmarked) [Cpd 43, N-[4-(2-chloro-5-fluoro-phenylcarbonyl)amino-phenylcarbonyl]-2-pyridin-2-ylaminoimino-spiro[cyclopentane-1,4′-benzo[b]azepane]] | 80 nM | 5 nM | 56 nM | 200 nM | 
COc1cc(C(=O)N2CCC3(CCCC3N)Cc3ccccc32)ccc1NC(=O)c1cc(F)ccc1Cl (centres unmarked) [Cpd 8, 2-amino-N-[3-methoxy-4-(2-chloro-5-fluoro-phenylcarbonyl)amino-phenylcarbonyl]-spiro[cyclopentane-1,4′-benzo[b]azepane]] |  | 16 nM | 83 nM |  | 
O=C(c1ccc(N2CCCC2)cc1)N1CCC2(CCCC2=NO)Cc2ccccc21 (centres unmarked) [Cpd 46, N-[4-pyrrolidin-1-yl-phenylcarbonyl]-2-hydroxyimino-spiro[cyclopentane-1,4′-benzo[b]azepane]] |  |  |  |  | inhibition at 0.2 µM (human V1a receptor [2]): 73%; inhibition at 0.2 µM (human V2 receptor [3]): 40%
CON=C1CCCC12CCN(C(=O)c1ccc(NC(=O)c3cc(F)ccc3Cl)cc1)c1ccccc1C2 (centres unmarked) [Cpd 2, N-[4-(2-chloro-5-fluoro-phenylcarbonyl)amino-phenylcarbonyl]-2-methoxyimino-spiro[cyclopentane-1,4′-benzo[b]azepane]] |  | 7 nM | 44 nM |  | 
Cc1ccccc1C(=O)Nc1ccc(C(=O)N2CCC3(CCCC3=NO)Cc3ccccc32)cc1 (centres unmarked) [Cpd 49, N-[4-(2-methyl-phenylcarbonyl)amino-phenylcarbonyl]-2-hydroxyimino-spiro[cyclopentane-1,4′-benzo[b]azepane]] |  | 12 nM | 34 nM |  | 
Cc1ccn(-c2ccc(C(=O)N3CCC4(CCCC4=NO)Cc4ccccc43)cc2)n1 (centres unmarked) [Cpd 47, N-[4-(3-methyl-1H-pyrazol-1-yl)-phenylcarbonyl]-2-hydroxyimino-spiro[cyclopentane-1,4′-benzo[b]azepane]] |  |  |  |  | inhibition at 0.2 µM (human V1a receptor [2]): 86%; inhibition at 0.2 µM (human V2 receptor [3]): 62%
Cc1ccc(F)cc1C(=O)Nc1ccc(C(=O)N2CCC3(CCCC3=NO)Cc3ccccc32)cc1 (centres unmarked) [Cpd 48, N-[4-(2-methyl-5-fluoro-phenylcarbonyl)amino-phenylcarbonyl]-2-hydroxyimino-spiro[cyclopentane-1,4′-benzo[b]azepane]] |  | 16 nM | 26 nM |  | 
COc1cc(C(=O)N2CCC3(CCCC3=NO)Cc3ccccc32)ccc1NC(=O)c1cccc(F)c1 (centres unmarked) [Cpd 51, N-[3-methoxy-4-(3-fluoro-phenylcarbonyl)amino-phenylcarbonyl]-2-hydroxyimino-spiro[cyclopentane-1,4′-benzo[b]azepane]] |  | 16 nM | 87 nM |  | 
COc1cc(C(=O)N2CC[C@@]3(CCC(N4CCOCC4)C3)Cc3ccccc32)ccc1NC(=O)c1cc(F)ccc1Cl (stereo partly drawn) [Cpd 18, (1R)—N-[3-methoxy-4-(2-chloro-5-fluoro-phenylcarbonyl)amino-phenylcarbonyl]-3-morpholin-4-yl-spiro[cyclopentane-1,4′-benzo[b]azepane]] |  |  |  | 1200 nM | IC50 (human V1a receptor [1]): 240 nM
COC(=O)C=C1CC[C@@]2(CCN(C(=O)c3ccc(NC(=O)c4cc(F)ccc4Cl)c(OC)c3)c3ccccc3C2)C1 [Cpd 26, (R)—N-[3-methoxy-4-(2-chloro-5-fluoro-phenylcarbonyl)amino-phenylcarbonyl]-3-methoxycarbonylmethylene-spiro[cyclopentane-1,4′-benzo[b]azepane]] | 4000 nM |  |  | 70 nM | 
COc1cc(C(=O)N2CC[C@@]3(CCC(=CC(=O)NCCN4CCOCC4)C3)Cc3ccccc32)ccc1NC(=O)c1cc(F)ccc1Cl [Cpd 28, (R)—N-[3-methoxy-4-(2-chloro-5-fluoro-phenylcarbonyl)amino-phenylcarbonyl]-3-(2-morpholin-4-yl-ethyl)aminocarbonylmethylene-spiro[cyclopentane-1,4′-benzo[b]azepane]] |  |  |  | 200 nM | IC50 (human V1a receptor [1]): 220 nM
COc1cc(C(=O)N2CCC3(CCCC3N)Cc3ccccc32)ccc1NC(=O)c1cccc(F)c1 (centres unmarked) [Cpd 50, 2-amino-N-[3-methoxy-4-(3-fluoro-phenylcarbonyl)amino-phenylcarbonyl]-spiro[cyclopentane-1,4′-benzo[b]azepane]] |  |  |  |  | inhibition at 0.2 µM (human V1a receptor [2]): 89%; inhibition at 0.2 µM (human V2 receptor [3]): 9%
CNC(=O)C=C1CC[C@@]2(CCN(C(=O)c3ccc(NC(=O)c4cc(F)ccc4Cl)c(OC)c3)c3ccccc3C2)C1 [Cpd 30, (R)—N-[3-methoxy-4-(2-chloro-5-fluoro-phenylcarbonyl)amino-phenylcarbonyl]-3-methylaminocarbonylmethylene-spiro[cyclopentane-1,4′-benzo[b]azepane]] | 210 nM |  |  | 90 nM | 
COc1cc(C(=O)N2CC[C@@]3(CCC(=CC(=O)O)C3)Cc3ccccc32)ccc1NC(=O)c1cc(F)ccc1Cl [Cpd 16, (R)-N-[3-methoxy-4-(2-chloro-5-fluoro-phenylcarbonyl)amino-phenylcarbonyl]-3-carboxymethylene-spiro[cyclopentane-1,4′-benzo[b]azepane]] |  |  |  | 74 nM | IC50 (human V1a receptor [1]): 30 nM
O=C(Nc1ccc(C(=O)N2CCC3(CCCC3=NO)Cc3ccccc32)cn1)c1cc(F)ccc1Cl (centres unmarked) [Cpd 10, N-[6-(2-chloro-5-fluoro-phenylcarbonyl)amino-pyridin-3-ylcarbonyl]-2-hydroxyimino-spiro[cyclopentane-1,4′-benzo[b]azepane]] |  | 60 nM | 70 nM |  | 
